Our source for the EC50 values is paper PMC5986788, “Succinate induces aberrant mitochondrial fission in cardiomyocytes through GPR91 signaling” (Cell Death & Disease, 2018).

The structures appear in SMILES notation.

The assay concerns the target T1, G protein-coupled receptor-91 (GPR91) (Rattus norvegicus, UniProt Q6IYF9).
T1 construct: gene Sucnr1
In words: cell-based.

T1 sequence (Q6IYF9 whole entry): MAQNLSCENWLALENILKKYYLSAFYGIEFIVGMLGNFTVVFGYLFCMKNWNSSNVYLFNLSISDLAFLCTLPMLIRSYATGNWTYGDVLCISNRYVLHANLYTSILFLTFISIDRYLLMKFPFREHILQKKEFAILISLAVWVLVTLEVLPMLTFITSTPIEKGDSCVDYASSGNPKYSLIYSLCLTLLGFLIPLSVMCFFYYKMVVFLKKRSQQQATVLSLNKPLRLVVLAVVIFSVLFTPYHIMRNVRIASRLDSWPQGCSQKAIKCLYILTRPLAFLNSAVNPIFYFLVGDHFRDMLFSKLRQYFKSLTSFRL

Usually EC50 stands for the midpoint of the concentration-response curve. The low end stands for greater potency, the high end for weaker potency. With `O=C(O)CCC(=O)O` [succinate], a half-maximal response (EC50) required 154 µM.
